Reference: PubChem BioAssay AID330 (DTP/NCI, 2004)
Where “and” joins values, the source holds several entries; their conditions need not be identical. Equal values may be shown once. Toxic doses and inconclusive results are not listed. Peptide text beside a SMILES is read from it. * marks the point of attachment. Trt = c1ccc(C(c2ccccc2)(c2ccccc2)*)cc1

Tested on: P388 leukemia ip, CD2F1 mice, survival T/C
Assay: NCI In Vivo Anticancer Drug Screen. Data for tumor model P388 Leukemia (intraperitoneal) in CD2F1 (CDF1) mice
Settings: endpoint: median survival time, higher = longer survival
In short: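 Mice carrying the transplanted tumor received test compound or vehicle. Survival was recorded in each group, and the value is the treated-group measurement divided by that of the vehicle-treated control group.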

[1] = dose: 50.0 mg/kg/injection, schedule: Q01DX005 (ip), vehicle: Klucel (hydroxypropylcellulose) (HPC)
[2] = dose: 100.0 mg/kg/injection, schedule: Q01DX005 (ip), vehicle: Klucel (hydroxypropylcellulose) (HPC)
[3] = dose: 50.0 mg/kg/injection, schedule: Q01DX005 (ip), vehicle: saline with Tween-80
[4] = dose: 100.0 mg/kg/injection, schedule: Q01DX005 (ip), vehicle: saline with Tween-80
[5] = dose: 200.0 mg/kg/injection, schedule: Q01DX005 (ip), vehicle: saline with Tween-80
[6] = dose: 60.0 mg/kg/injection, schedule: Q01DX005 (ip), vehicle: Klucel (hydroxypropylcellulose) (HPC)
[7] = dose: 50.0 mg/kg/injection, schedule: Q01DX009 (ip), vehicle: Klucel (hydroxypropylcellulose) (HPC)
[8] = dose: 100.0 mg/kg/injection, schedule: Q01DX009 (ip), vehicle: Klucel (hydroxypropylcellulose) (HPC)
[9] = dose: 120.0 mg/kg/injection, schedule: Q01DX005 (ip), vehicle: Klucel (hydroxypropylcellulose) (HPC)
[10] = dose: 240.0 mg/kg/injection, schedule: Q01DX005 (ip), vehicle: Klucel (hydroxypropylcellulose) (HPC)
[11] = dose: 50.0 mg/kg/injection, schedule: Q01DX009 (ip), vehicle: saline with Tween-80
[12] = dose: 100.0 mg/kg/injection, schedule: Q01DX009 (ip), vehicle: saline with Tween-80
[13] = dose: 60.0 mg/kg/injection, schedule: Q01DX005 (ip), vehicle: saline with Tween-80
[14] = dose: 120.0 mg/kg/injection, schedule: Q01DX005 (ip), vehicle: saline with Tween-80
[15] = dose: 240.0 mg/kg/injection, schedule: Q01DX005 (ip), vehicle: saline with Tween-80
[16] = dose: 50.0 mg/kg/injection, schedule: Q01DX009 (ip), vehicle: saline
[17] = dose: 12.5 mg/kg/injection, schedule: Q01DX009 (ip), vehicle: saline with Tween-80
[18] = dose: 25.0 mg/kg/injection, schedule: Q01DX009 (ip), vehicle: saline with Tween-80

Cc1cccc(C2N=C3Oc4ccccc4C=C3C(=O)N2)c1 (centres undefined)
T/C (dose: 6.25 mg/kg/injection, schedule: Q01DX005 (ip), vehicle: Klucel (hydroxypropylcellulose) (HPC)): 96 % of control | T/C (dose: 12.5 mg/kg/injection, schedule: Q01DX005 (ip), vehicle: Klucel (hydroxypropylcellulose) (HPC)): 95 % of control | T/C (dose: 25.0 mg/kg/injection, schedule: Q01DX005 (ip), vehicle: Klucel (hydroxypropylcellulose) (HPC)): 96 % of control | T/C [1]: 99 % of control | T/C [2]: 105 % of control

COC(=O)C1(c2ccccc2)N=NN=C1N(C)C (centres undefined)
T/C [3]: 98 % of control | T/C [4]: 106 % of control | T/C [5]: 110 % of control

O=C1c2ccccc2C(=O)N1CCC[P+](c1ccccc1)(c1ccccc1)c1ccccc1
T/C (dose: 1.56 mg/kg/injection, schedule: Q01DX009 (ip), vehicle: saline): 122 % of control

CCOC(=O)c1ccc(NC(=O)Nc2nc3ccccc3s2)cc1
T/C (dose: 25.0 mg/kg/injection, schedule: Q01DX009 (ip), vehicle: distilled water + Tween-80): 97 % of control | T/C (dose: 50.0 mg/kg/injection, schedule: Q01DX009 (ip), vehicle: distilled water + Tween-80): 97 % of control | T/C (dose: 100.0 mg/kg/injection, schedule: Q01DX009 (ip), vehicle: distilled water + Tween-80): 90 % of control | T/C (dose: 200.0 mg/kg/injection, schedule: Q01DX009 (ip), vehicle: distilled water + Tween-80): 90 % of control | T/C (dose: 400.0 mg/kg/injection, schedule: Q01DX009 (ip), vehicle: distilled water + Tween-80): 90 % of control

O=C1Nc2ccccc2C(=O)C1=Ic1ccccc1
T/C (dose: 15.0 mg/kg/injection, schedule: Q01DX005 (ip), vehicle: Klucel (hydroxypropylcellulose) (HPC)): 101 % of control | T/C (dose: 30.0 mg/kg/injection, schedule: Q01DX005 (ip), vehicle: Klucel (hydroxypropylcellulose) (HPC)): 104 % of control | T/C [1]: 94 % of control | T/C [6]: 104 % of control and 88 % of control | T/C [2]: 91 % of control

CCOC(=O)N1CCN(CC(O)Cn2c(=O)c3c(nc(N4CCN(C(=O)OCC)CC4)n3C)n(C)c2=O)CC1 (centres undefined)
T/C [7]: 100 % of control | T/C [8]: 101 % of control | T/C (dose: 200.0 mg/kg/injection, schedule: Q01DX009 (ip), vehicle: Klucel (hydroxypropylcellulose) (HPC)): 99 % of control

CCC(C)/C(=C\C#N)NCCN/C(=C/C#N)C(C)CC (centres undefined)
T/C [6]: 94 % of control | T/C [9]: 91 % of control | T/C [10]: 89 % of control

COC1/C=C/OC2(C)Oc3c(C)c(O)c4c(c3C2=O)C(=O)C(CO)=C(NC(=O)/C(C)=C\C=C\C(C)C(O)C(C)C(O)C(C)C(OC(C)=O)C1C)C4=O (centres undefined)
T/C [11]: 104 % of control | T/C [12]: 99 % of control | T/C (dose: 200.0 mg/kg/injection, schedule: Q01DX009 (ip), vehicle: saline with Tween-80): 112 % of control

COc1cc(OC)c(OC)cc1/C=C/C1=C(C)C(=O)CC(c2cc(OC)c(OC)cc2OC)C1C (centres undefined)
T/C (dose: 100.0 mg/kg/injection, schedule: Q01DX001 (ip), vehicle: Klucel (hydroxypropylcellulose) (HPC)): 86 % of control | T/C (dose: 200.0 mg/kg/injection, schedule: Q01DX001 (ip), vehicle: Klucel (hydroxypropylcellulose) (HPC)): 86 % of control

O=C1c2ccccc2C(=O)c2c1cccc2N1C(=O)C=CC1=O
T/C [13]: 101 % of control | T/C [14]: 95 % of control | T/C [15]: 93 % of control

CSC(=S)c1ccc(NS(=O)(=O)c2ccccc2)cc1
T/C (dose: 100.0 mg/kg/injection, schedule: Q04DX003 (ip), vehicle: saline): 100 % of control | T/C (dose: 200.0 mg/kg/injection, schedule: Q04DX003 (ip), vehicle: saline): 106 % of control | T/C (dose: 400.0 mg/kg/injection, schedule: Q04DX003 (ip), vehicle: saline): 105 % of control

c1ccc2c(c1)SP(P1Sc3ccccc3S1)S2
T/C [7]: 100 % of control | T/C [8]: 107 % of control

CCOC(=O)C[C@@]1(C)C(=O)O[C@H](c2ccccc2)N1C(=O)c1ccccc1
T/C [13]: 106 % of control | T/C [14]: 100 % of control | T/C [15]: 94 % of control

COC(=O)C(CC(C)C)NC(=O)C(N)CSC(c1ccccc1)(c1ccccc1)c1ccccc1 (centres undefined) (H-Cys(Trt)-Leu-OMe; configuration not given here)
T/C [6]: 113 % of control

CCCCNC(=O)c1ccccc1C(=O)NC1(C(=O)NCCCC)CCCC1
T/C [3]: 101 % of control | T/C [4]: 97 % of control | T/C [5]: 93 % of control

C=C(Br)CC(N)C(=O)O (centres undefined)
T/C [1]: 116 % of control | T/C [2]: 106 % of control

COC[N+](C)(C)c1ccc(/C=C/C=O)cc1
T/C (dose: 12.5 mg/kg/injection, schedule: Q01DX009 (ip), vehicle: saline): 114 % of control | T/C (dose: 25.0 mg/kg/injection, schedule: Q01DX009 (ip), vehicle: saline): 109 % of control | T/C [16]: 118 % of control and 98 % of control

CCCCCC(CN(C)C)C(=O)/C=C/c1ccc(Cl)cc1 (centres undefined)
T/C [17]: 95 % of control | T/C [18]: 96 % of control | T/C [11]: 113 % of control

N#CC1(OC2OC(CO)C(O)C(O)C2O)C=CCC1 (centres undefined)
T/C (dose: 25.0 mg/kg/injection, schedule: Q01DX005 (ip), vehicle: saline): 101 % of control | T/C (dose: 50.0 mg/kg/injection, schedule: Q01DX005 (ip), vehicle: saline): 103 % of control | T/C (dose: 100.0 mg/kg/injection, schedule: Q01DX005 (ip), vehicle: saline): 98 % of control | T/C (dose: 200.0 mg/kg/injection, schedule: Q01DX005 (ip), vehicle: saline): 96 % of control

COc1ccc(Cc2cc(N=O)c(OC)cc2O)cc1
T/C [3]: 90 % of control | T/C [4]: 87 % of control

C1=CCN(c2nc(N3CCOCC3)nc(N3CCCc4ccccc43)n2)CC1
T/C [16]: 99 % of control | T/C (dose: 100.0 mg/kg/injection, schedule: Q01DX009 (ip), vehicle: saline): 97 % of control | T/C (dose: 200.0 mg/kg/injection, schedule: Q01DX009 (ip), vehicle: saline): 99 % of control

CN=C(N)N/N=C(\c1ccccc1)c1ccc(Cl)cc1
T/C (dose: 6.25 mg/kg/injection, schedule: Q04DX002 (ip), vehicle: saline with Tween-80): 102 % of control | T/C (dose: 12.5 mg/kg/injection, schedule: Q04DX002 (ip), vehicle: saline with Tween-80): 109 % of control | T/C (dose: 25.0 mg/kg/injection, schedule: Q04DX002 (ip), vehicle: saline with Tween-80): 153 % of control

CCOC(=O)Nc1cc(Cl)c2[nH]cnc2n1
T/C [1]: 97 % of control | T/C [2]: 101 % of control | T/C (dose: 200.0 mg/kg/injection, schedule: Q01DX005 (ip), vehicle: Klucel (hydroxypropylcellulose) (HPC)): 108 % of control

CC(=O)c1ccccc1N=O
T/C (dose: 50.0 mg/kg/injection, schedule: Q01DX001 (ip), vehicle: other): 102 % of control | T/C (dose: 100.0 mg/kg/injection, schedule: Q01DX001 (ip), vehicle: other): 101 % of control and 107 % of control | T/C (dose: 200.0 mg/kg/injection, schedule: Q01DX001 (ip), vehicle: other): 100 % of control | T/C (dose: 400.0 mg/kg/injection, schedule: Q01DX001 (ip), vehicle: other): 102 % of control

c1ccc2c(SCCCCCCCCSc3c4ccccc4nc4ccccc34)c3ccccc3nc2c1
T/C [6]: 101 % of control | T/C [9]: 86 % of control | T/C [10]: 86 % of control

CCCCCCC(=O)CC(SCCO)c1ccc(Cl)c(Cl)c1 (centres undefined)
T/C (dose: 100.0 mg/kg/injection, schedule: Q04DX003 (ip), vehicle: suspension in saline): 99 % of control | T/C (dose: 200.0 mg/kg/injection, schedule: Q04DX003 (ip), vehicle: suspension in saline): 104 % of control | T/C (dose: 400.0 mg/kg/injection, schedule: Q04DX003 (ip), vehicle: suspension in saline): 104 % of control

CN(C)C1C(O)C2Oc3c(cc(O)c4c3C(=O)c3cc5c(c(O)c3C4=O)C(OCCBr)CC(C)(O)C5)C(C)(O2)C1O (centres undefined)
T/C (dose: 2.0 mg/kg/injection, schedule: Q01DX009 (ip), vehicle: other): 150 % of control | T/C (dose: 4.0 mg/kg/injection, schedule: Q01DX009 (ip), vehicle: other): 154 % of control | T/C (dose: 8.0 mg/kg/injection, schedule: Q01DX009 (ip), vehicle: other): 157 % of control | T/C (dose: 16.0 mg/kg/injection, schedule: Q01DX009 (ip), vehicle: other): 159 % of control

CC(C)=CCC/C(C)=C\C1OC(C)C(C)O1 (centres undefined)
T/C [3]: 104 % of control | T/C [4]: 100 % of control | T/C [5]: 107 % of control

CCOC(=O)c1nnn(Cc2ccccc2)c1N
T/C [17]: 104 % of control | T/C [18]: 100 % of control | T/C [11]: 100 % of control | T/C [12]: 104 % of control
